The values below come from patent publication US6984500B2, “Method for detecting microorganisms and detection kit” (priority 2001, dated 2006).

The structures appear in SMILES notation. Values after ≈ are worked out from the molar mass of the structure shown. Some results are limits rather than exact numbers.

Assay [1] relates to A. fumigatus ATCC 26430. The experiment in a line: Colorimetric microplate drug susceptibility test (WST-8 coloring reagent, sucrose YN broth, NaOH sensitizing solution). Format: cell-based, Aspergillus Fumigatus. To be noted: for Drug concentration at or above which almost no color was exhibited visually: visual reading. The method, then:
(§1) Aspergillus Fumigatus ATCC26430 was used.
The drug solutions so prepared were pipetted into a plate at 0.02 mL/well and dried to a solid under reduced pressure for 24 hours. A coloring reagent (containing 0.7 mmol/L WST-8, 0.0035 mmol/L 1-methoxy PMS, 0.5 mmol/L potassium ferricyanide, and 0.5 mmol/L of potassium ferrocyanide) was pipetted into each of the wells at 0.02 mL/well and they were again dried to a solid under reduced pressure for 24 hours.
6.7 g of YN Base (manufactured by Difco) and 20 g of sucrose were dissolved in about 900 mL of purified water, and the pH was adjusted to 7.0 with a 1N aqueous solution of sodium hydroxide. The solution was made up to 1000 mL with purified water and then filter sterilized using a 0.2 μm filter.
A tester strain was cultured using Sabouraud Dextrose Agar (manufactured by OXOID) at 35° C. for 7 days. 2 mL of sterile physiological saline containing 0.1% Tween 80 was added dropwise onto the culture medium so as to float spores. The above-mentioned physiological saline that had been added dropwise onto the culture medium was recovered and allowed to stand for 3 to 5 minutes, and after removing the precipitate it was mixed using a Vortex mixer to give a spore suspension. Dilution was carried out so that the absorbance at 530 nm was 0.09 to 0.11. 0.1 mL of the spore suspension so prepared was taken using a micro pipette, added to 20 mL of sucrose YN broth, and stirred using a Vortex mixer to give an inoculum. 0.2 mL of the inoculum was pipetted into each of the wells of the microplate for the test described in B, the plate was covered, and culturing was carried out at 35° C.±1° C. for 24 hours. As a blank, sucrose YN broth was added instead of the inoculum.
After 24 hours 0.02 mL of a 1.5 mol/L aqueous solution of sodium hydroxide was added to each well, and 5 minutes after the addition the absorbance at 630 nm was measured.
2. For ITCZ, the 80% inhibitory concentration (IC80) was determined.

The subject of assay [2] is A. fumigatus ATCC 26430. Particulars: reference values of NCCLS M38-P; cited from earlier work.
The subject of assay [3] is A. fumigatus ATCC 26430. The experiment in a line: NCCLS M-38P turbidity method (0.2 mL micro broth dilution) antifungal susceptibility test. It counts as cell-based. Particulars: Aspergillus fumigatus, ATCC26430, repeated tests, determination time 46 to 50 hours. The method, then: as §1
A comparative example was carried out according to NCCLS M-38P (0.2 mL culture system micro broth dilution method).

As to `C[C@@H]1[C@H](O)[C@@H](C)/C=C/C=C/C=C/C=C/C=C/C=C/C=C/[C@H](O[C@@H]2O[C@H](C)[C@@H](O)[C@H](N)[C@@H]2O)C[C@@H]2O[C@](O)(C[C@@H](O)C[C@@H](O)[C@H](O)CC[C@@H](O)C[C@@H](O)CC(=O)O[C@H]1C)C[C@H](O)[C@H]2C(=O)O` [AMPH, Amphotericin B], the “Drug concentration at or above which almost no color was exhibited visually” value with A. fumigatus ATCC 26430 [1] (24 hours culture) was ≥ 0.5 µg/mL. Besides, the “Allowable range (MIC reference values described in NCCLS M38-P)” value with A. fumigatus ATCC 26430 [2] was 0.5 to 2.0 µg/mL.
`CCC(C)n1ncn(-c2ccc(N3CCN(c4ccc(OCC5COC(Cn6cncn6)(c6ccc(Cl)cc6Cl)O5)cc4)CC3)cc2)c1=O` (stereo not drawn) [ITCZ, Itraconazole]: the MIC with A. fumigatus ATCC 26430 [3] lay within 0.12 to 0.25 µg/mL (≈ 0.17 to 0.354 µM); with A. fumigatus ATCC 26430 [1] (Aspergillus fumigatus, ATCC26430, 24 h) it was 0.12 to 0.25 µg/mL. In addition, in the assay on A. fumigatus ATCC 26430 [1] (24 hours culture, absorbance at 630 nm), the “Drug concentration at or below which absorbance at 630 nm increased (FIG. 2)” value was ≤ 0.06 µg/mL. For the same compound, the “Drug concentration at or above which almost no color was exhibited visually” value with A. fumigatus ATCC 26430 [1] (24 hours culture) was ≥ 0.12 µg/mL.
